Experimental data as given in paper PMC6675551, “Mass spectrometry–driven exploration reveals nuances of neoepitope-driven tumor rejection” (JCI Insight, 2019).

Legend:
[1] = tested on: Meth A fibrosarcoma tumor cells; assay: Tumor rejection after immunization with neoepitope-pulsed BMDCs and Meth A challenge; format: in vivo, BALB/cJ mice; settings: for Tumor rejection activity (in words): immunized twice 1 week apart with neoepitope-pulsed BMDCs (3 × 10^6), challenge with 95,000 Meth A cells 1 week later, CTLA4 blockade except TGAARFDEF
Excerpt: The 8 MS-defined neoepitopes were used to immunize naive BALB/cJ mice twice, 1 week apart, with neoepitope-pulsed bone marrow–derived dendritic cells (BMDCs, 3 × 10^6) as adjuvants, as previously published ([22]). All mice were challenged with 95,000 Meth A tumor cells 1 week after the second immunization, and tumor growth was monitored in individual mice (Figure 2, A and B). […] The TCI score parameterizes the tumor rejection, tumor inhibition, and tumor stability scores to produce a total TCI score, which reflects the control of the tumor growth in each group.
Day 7 BMDCs were pulsed with 40 μg of the neoepitope (1 μL of a 20 mM neoepitope solution was added to 7.5 million BMDCs in 200 μL RPMI medium for final peptide concentration of 100 μM). The pulsed BMDCs were washed 4 times and used to immunize a single mouse. Mice were randomized before being used for immunization with individual peptides to control for any cage effects. All immunizations were performed in the presence of CTLA4 blockade, using the […] (clone 9D9, Bio X Cell), administered with the second immunization and every 3 days after tumor challenge except for peptide TGAARFDEF. Tumor diameters were measured in 2 dimensions and the average diameter determined.
TCI quantitates and integrates all 3 aspects of tumor growth: inhibition, period of tumor size stability, and tumor shrinkage (complete response), as published previously ([23]).

tetramer+ CD8+ T cells [2] = assay: Tetramer staining of CD8+ T cells in immunized naive non-tumor-bearing mice; format: in vivo, BALB/cJ mice; settings: for Tetramer+ cells of total CD8+ T cells, blood: blood harvested 1 week after second immunization; for CD8+ T cell response by tetramer staining (in words): immunized naive, non-tumor-bearing mice
Procedure: In parallel, naive, non–tumor-bearing mice immunized with the neoepitopes were tested for CD8^+ T cell responses to 7 of the 8 neoepitopes. ELISpot assays could not be performed because of the high background generated by incubation of T cells with any DCs. […] Tetramer staining was therefore used for better sensitivity and specificity (Figure 2D). (Tetramers against the neoepitope MAPVRTASM derived from Aebp1 gene could not be made.) Blood and the spleen of the immunized mice were harvested 1 week after the second immunization and stained for CD3, CD8, as well as specific binding to neoepitope tetramers (Figure 2, D and E). Of the 2 neoepitopes able to strongly elicit tumor rejection (TGAARFDEF and AYMKMLSSSL), only TGAARFDEF elicited a measurable CD8^+ T cell response as detected by tetramer staining. […] Of these, the response elicited by VGPEILSSL (derived from Trib3) was the strongest CD8^+ T cell response among all neoepitopes; approximately 10% of the CD8^+ T cells (in blood) in mice immunized with it were tetramer^+. As controls, we measured, in 2 instances, tetramer response in mice immunized with an irrelevant neoepitope; such nonspecific response was never detected.
(§1) The antibody specific for Fixable Viability Dye eFluor 780 was purchased from eBioscience. PE tetramer specific for each neoepitope was synthesized, validated, and tested by MBL International Corporation. Tetramer testing was performed prior to product release according to standard operating procedures of MBL, and the tetramers were further tested for specificity in our laboratory. The FITC-labeled antibody specific for CD8 (clone KT15) was purchased from the same company. BV510 CD3 (clone 17A2) was purchased from Biolegend. Mouse FcR blocking reagent was purchased from Miltenyi Biotec. Flow cytometry was performed using Miltenyi Biotec MACSQuant analyzer. The analysis was done using FlowJo software (FlowJo LLC).

tetramer+ CD8+ T cells [3] = assay: Tetramer staining of CD8+ T cells in non-immunized tumor-bearing mice; format: in vivo, BALB/cJ mice; settings: unimmunized Meth A tumor-bearing mice, blood and spleen
Procedure: Thus, of the 7 neoepitopes tested, 4 neoepitopes elicited expansion of tetramer^+ CD8^+ T cells on immunization of naive, non–tumor-bearing mice (Figure 2E). We now examined CD8^+ T cell responses to the 4 neoepitopes in unimmunized, tumor-bearing mice (Figure 2F). […] As controls, CD8 cells from mice bearing an antigenically irrelevant tumor (4T1) were tested for tetramer response to all 7 neoepitopes; no response was detected. Altogether, CD8^+ T cell responses in non-immunized tumor-bearing mice and immunized tumor-naive mice were often discordant.
as §1

[4] = tested on: Meth A fibrosarcoma tumor cells; assay: CD8 depletion in vivo during priming of neoepitope-immunized mice; parameters: species or system BALB/cJ mice; settings: 250 μg anti-CD8 depleting antibody or isotype control 6 days before first immunization (priming phase)
Procedure: CD8 dependence of neoepitope-elicited tumor immunity was tested in the case of the peptide TGAARFDEF (derived from Gtf2b) by depletion of neoepitope-immunized mice by anti-CD8 depleting antibody or an isotype control antibody during the priming phase alone, as described in the Methods. […] The kinetics of recovery of the depleted CD8^+ cells in mice is not uniform, resulting in lack of abrogation of immunity in 2 of the 5 mice. Because depletion of CD4^+ T cells results in depletion of helper as well as regulatory CD4^+ T cells, and the 2 effects are contradictory, depletion of CD4^+ cells was not attempted.
BALB/cJ mice were injected with 250 μg of isotype control (InVivoMAb rat IgG2b isotype control, Bio X Cell) or CD8-depleting antibody (InVivoMAb anti–mouse CD8α, rat IgG2b, clone 2.43, Bio X Cell) antibodies 6 days before the first immunization (priming phase). The CD8^+ cells remained completely depleted in all mice until day 6; after that the recovery was variable.

IFN-γ+ CD8+ cells = IFN-γ+ CD8+ cells from mice immunized with individual peptides; format: in vivo, BALB/cJ mice; settings: data not shown
[5] = neoepitope-pulsed BMDC immunization, 95,000 Meth A cells challenge

Row | Sequence | Tumor rejection activity (in words) [1] | CD8+ T cell response by tetramer staining (in words) (tetramer+ CD8+ T cells [3]) | CD8+ T cell response by tetramer staining (in words) (tetramer+ CD8+ T cells [2]) | also measured
1 | KYLQVASHV | inactive |  |  | 
2 | YIRPFETKVK |  |  |  | Tumor Rejection Score (max score = 5) ([1]; BALB/cJ mice immunized with peptide-pulsed BMDCs, Meth A challenge, Table 2): 4.5
3 | VGPEILSSL | no tumor rejection | significant CD8^+ T cell response |  | Tetramer+ cells of total CD8+ T cells, blood (tetramer+ CD8+ T cells [2]; immunized naive mice): approximately 10%
4 | IGPRALDVL | intermediate tumor rejection | significant CD8^+ T cell response | good tetramer CD8^+ T cell response | 
5 | SYLLGSGEARL |  |  |  | Immunized mice able to reject the tumor completely [1, 5]: about 50%
6 | AYMKMLSSSL |  |  | did not elicit a measurable CD8^+ response | Immunized mice able to reject the tumor completely [1, 5]: 60%; Immunized mice with relatively prolonged tumor stabilization [1, 5]: 30%
7 | TGAARFDEF | complete tumor rejection | could not detect a measurable CD8^+ T cell response |  | CD8 dependence of neoepitope-elicited tumor immunity [4]: completely abolished the neoepitope-elicited tumor rejection in 3 of the 5 mice; Tetramer+ cells of total CD8+ T cells, blood (tetramer+ CD8+ T cells [2]; immunized naive mice): approximately 0.7%; Tetramer+ cells of total CD8+ T cells, spleen (tetramer+ CD8+ T cells [2]; immunized naive mice, spleen harvested 1 week after second immunization): ~0.43%; IFN-γ+ CD8+ cell response (IFN-γ+ CD8+ cells): a specific response was detected
8 | KYLQVASHVGL | did not elicit tumor rejection | did not elicit such a response | strong CD8^+ T cell response | 
9 | IGPRAVDVL [reference compound] | intermediate tumor rejection activity |  |  | Tetramer+ cells (CD8+ T cell response), tissue not stated (tetramer+ CD8+ T cells [2]; immunized naive mice, 1 week after second immunization): ~ 0.35%
